The values below come from US20250332300A1 (priority 2024, published 2025).

Structures can show the parent of a compound that is named as a salt. Where two headings read alike, the source gives them in different places. Starred links: 1 amine or outer side, 2 acyl side, 3 side chain; linkers in the order of their positions; H or OH if unused. Positions of bridges follow the written chain, without caps; N, C: chain ends. Non-standard residues stand in square brackets, D forms with d. Residues, ends and D or L forms follow the SMILES beside them. *: point of attachment. DOTA = O=C(O)CN1CCN(CC(=O)O)CCN(CC(=O)*)CCN(CC(=O)O)CC1; PEG10 = NCCOCCOCCOCCOCCOCCOCCOCCOCCOCCOCCC(=O)O; Trp(5-OH) = N[C@@H](Cc1c[nH]c2ccc(O)cc12)C(=O)O; NMePhe(4-F) = CN[C@@H](Cc1ccc(F)cc1)C(=O)O; NMehPhe = CN[C@@H](CCc1ccccc1)C(=O)O; Aad = N[C@@H](CCCC(=O)O)C(=O)O; Gly(cPr) = N[C@H](C(=O)O)C1CC1; NMeK = CN[C@@H](CCCCN)C(=O)O; NMeDap = CN[C@@H](CN)C(=O)O; Orn = NCCC[C@H](N)C(=O)O; X6 = O=C(C[*:1])[*:2]

The term Kd denotes the equilibrium constant for the complex coming apart. Broadly, the IC50 is the concentration at which inhibition is half-maximal.

Format in all cases: binding
The target of assay [1] is T1, human HER2 (23-652) (Homo sapiens, UniProt P04626). Nature of the assay: Surface plasmon resonance (SPR) for assessment of peptide affinity, human HER2. More on the design: towards human HER2 (23-652) and mouse HER2 (23-653); made in house. Particulars: SPR, human HER2 extracellular domain, 25° C., 1:1 binding model; read-out: huHER2-SPR-ONC KD. Here is the method:
Each protein was immobilized either onto a SA sensorchip (Cytiva, BR-1005-31) or CM5 sensorchip (Cytiva, BR-1005-30) to a density of 800-2000 RU. […] For the assay setup the same conditions (flow rate, running buffer, peptide dilution) as described above were used. In a first step the Anti Fc IgG Ab (from Human Antibody Capture Kit, Ref. 29234600, Cytiva) was diluted into acetate pH 5.0 at 25 ug/mL and immobilized at a flow rate of 10 uL/min over 360 s to reach a density around 6000 RU. […] The peptides were tested with an association time of 280 s followed by a dissociation time of 3000 s at a flow rate of 30 uL/min. The regeneration was done using 3 M magnesium chloride regeneration solution as obtained with a contact time of 30 s at a flow rate of 10 uL/min. Curve fitting was performed using the BiacoreTM 8K evaluation software.

The target of assay [2] is T1, human HER2 (23-652). Description: TR-FRET competition assay for peptide potency, human HER2. More on the design: towards human HER2 (23-652) and mouse HER2 (23-653); made in house; host or cells: mammalian cells. Here is the method:
(§1) Both proteins containing a His-, Avi-tag and biotin in Nterminus, were expressed in mammalian cells and produced in house. […] Standard assay conditions consist of 20 uL total volume in white 384-well plates (Greiner), in 10 mM HEPES buffer containing 150 mM NaCl, 3 mM EDTA, 0.05% Tween20 and 1% final DMSO. […] The ratiometric FRET assay readout is calculated from the ratio of the raw data of the two distinct fluorescence signals measured in time resolved mode (fluorescence 665 nm/fluorescence 620 nm). IC50 values were calculated with the standard Novartis in-house assay data analysis software (Helios software application, Novartis Institutes for BioMedical Research, unpublished) using the methods described in Comput. Methods. Programs. Biomed. 2006, 82, 31-37 (regression algorithms for nonlinear dose-response curve fitting).

The next assay deals with mouse HER2 (23-653) (Mus musculus, UniProt P70424). Nature of the assay: TR-FRET competition assay for peptide potency, mouse HER2. Also noted: mouse HER2 (23-653) using a Cy5 labeled peptide as a probe; made in house; host or cells: mammalian cells. Here is the method: as §1
The mark [3] stands for this setting: TR-FRET competition with Cy5 labeled peptide probe, 0.1 nM human HER2, 24 h incubation, read-out: huHER2 TR-FRET IC50.
The mark [4] stands for this setting: TR-FRET competition with Cy5 labeled peptide probe, 0.1 nM mouse HER2, 24 h incubation, read-out: moHER2 TR-FRET IC50.

Regarding `CC(=O)NCCCC[C@H]1C(=O)N[C@@H](Cc2c[nH]c3ccc(O)cc23)C(=O)N[C@@H](Cc2c[nH]c3ccccc23)C(=O)N[C@@H](C2CC2)C(=O)N(C)[C@H](C(=O)N(C)[C@@H](Cc2ccc(F)cc2)C(=O)N[C@@H](CCCCNC(=O)CN2CCN(CC(=O)O)CCN(CC(=O)O)CCN(CC(=O)O)CC2)C(=O)O)CNC(=O)CCC[C@H](NC(C)=O)C(=O)N[C@@H](Cc2ccc(O)cc2)C(=O)N[C@@H](CO)C(=O)N(C)[C@@H](CCc2ccccc2)C(=O)N1C` [Example C12], the equilibrium dissociation constant (Kd) at human HER2 (23-652) [1] was found to be 0.4 nM. Besides, the values for the half-inhibitory concentration (IC50) on human HER2 (23-652) [2] (setting [3]) and on mouse HER2 (23-653) (setting [4]) were 0.3 nM and 1 nM, respectively.

Take `CCCCCCCCCCCC(CCCCCCCCCCC(=O)O)(C(=O)O)C(=O)NCCOCCOCCOCCOCCOCCOCCOCCOCCOCCOCCOCCOCCOCCOCCOCCOCCOCCOCCOCCOCCOCCOCCOCCOCCC(=O)N[C@H]1CCCC(=O)NC[C@@H](C(=O)N(C)[C@@H](Cc2ccc(F)cc2)C(=O)N[C@@H](CCCCNC(=O)CN2CCN(CC(=O)O)CCN(CC(=O)O)CCN(CC(=O)O)CC2)C(N)=O)N(C)C(=O)[C@H](C2CC2)NC(=O)[C@H](Cc2c[nH]c3ccccc23)NC(=O)[C@H](Cc2c[nH]c3ccc(O)cc23)NC(=O)[C@H](CCCCNC(C)=O)N(C)C(=O)[C@H](CCc2ccccc2)N(C)C(=O)[C@H](CO)NC(=O)[C@H](Cc2ccc(O)cc2)NC1=O` (stereo partly shown) [Example G1]: the dissociation constant (Kd) at human HER2 (23-652) [1] was determined as 0.7 nM. Also, the concentration for half-maximal inhibition (IC50) at human HER2 (23-652) [2] (setting [3]) is 1 nM; at mouse HER2 (23-653) (setting [4]) it was 3.8 nM.

On to `CC(=O)NCCCC[C@H]1C(=O)N[C@@H](Cc2c[nH]c3ccc(O)cc23)C(=O)N[C@@H](Cc2c[nH]c3ccccc23)C(=O)N[C@@H](C2CC2)C(=O)N(C)[C@H](C(=O)N(C)[C@@H](Cc2ccc(F)cc2)C(=O)N[C@@H](CCCNC(=O)CN2CCN(CC(=O)O)CCN(CC(=O)O)CCN(CC(=O)O)CC2)C(N)=O)CNC(=O)CCC[C@H](NC(C)=O)C(=O)N[C@@H](Cc2ccc(O)cc2)C(=O)N[C@@H](CO)C(=O)N(C)[C@@H](CCc2ccccc2)C(=O)N1C` [Example C9] (Ac-[Aad]YS[NMehPhe][NMeK](Ac)[Trp(5-OH)]W[Gly(cPr)][NMeDap][NMePhe(4-F)][Orn](DOTA)-NH2; lactam 1-9), for which the Kd at human HER2 (23-652) [1] was under 0.1 nM. Also, the IC50 at human HER2 (23-652) [2] (setting [3]) was under 0.1 nM; on mouse HER2 (23-653) (setting [4]), 0.2 nM.

In the case of `CC(=O)NCCCC[C@H]1C(=O)N[C@@H](Cc2c[nH]c3ccc(O)cc23)C(=O)N[C@@H](Cc2c[nH]c3ccccc23)C(=O)N[C@@H](C2CC2)C(=O)N(C)[C@H](C(=O)N(C)[C@@H](Cc2ccc(F)cc2)C(=O)N[C@@H](CCCCNC(=O)CN2CCN(CC(=O)O)CCN(CC(=O)O)CCN(CC(=O)O)CC2)C(N)=O)CNC(=O)COC[C@H](NC(C)=O)C(=O)N[C@@H](Cc2ccc(O)cc2)C(=O)N[C@@H](CO)C(=O)N(C)[C@@H](CCc2ccccc2)C(=O)N1C` [Example C16] (Ac-SYS[NMehPhe][NMeK](Ac)[Trp(5-OH)]W[Gly(cPr)][NMeDap][NMePhe(4-F)]K(DOTA)-NH2; linker 1-9 via X6), the dissociation constant (Kd) on human HER2 (23-652) [1] is under 0.1 nM. Further, the IC50 at human HER2 (23-652) [2] (setting [3]) was under 0.1 nM; on mouse HER2 (23-653) (setting [4]), 0.1 nM.

With `CC(=O)NCCCC[C@H]1C(=O)N[C@@H](Cc2c[nH]c3ccc(O)cc23)C(=O)N[C@@H](Cc2c[nH]c3ccccc23)C(=O)N[C@@H]([C@H](C)O)C(=O)N(C)[C@H](C(=O)N(C)[C@@H](Cc2ccc(F)cc2)C(=O)N[C@@H](CCCCNC(=O)CN2CCN(CC(=O)O)CCN(CC(=O)O)CCN(CC(=O)O)CC2)C(N)=O)CNC(=O)CCC[C@H](NC(C)=O)C(=O)N[C@@H](Cc2ccc(O)cc2)C(=O)N[C@@H](CO)C(=O)N(C)[C@@H](CCc2ccccc2)C(=O)N1C` [Example C6], on human HER2 (23-652) [1], the Kd was determined as 0.3 nM. Also, the 50% inhibitory concentration (IC50) at human HER2 (23-652) [2] (setting [3]) was 0.5 nM; on human HER2 (23-652) [2] (value in parentheses (**): recalculated after further repetition, read-out: huHER2 TR-FRET IC50, recalculated value achieved after further repetition), 0.3 nM; on mouse HER2 (23-653) (value in parentheses (**): recalculated after further repetition, read-out: moHER2 TR-FRET IC50, recalculated value achieved after further repetition), 1 nM.

For the compound `CC(=O)NCCCC[C@H]1C(=O)N[C@@H](Cc2c[nH]c3ccc(O)cc23)C(=O)N[C@@H](Cc2c[nH]c3ccccc23)C(=O)N[C@@H](C2CC2)C(=O)N(C)[C@H](C(=O)N(C)[C@@H](Cc2ccc(F)cc2)C(N)=O)CNC(=O)CCC[C@H](NC(=O)CCOCCOCCOCCOCCOCCOCCOCCOCCOCCOCCNC(=O)CN2CCN(CC(=O)O)CCN(CC(=O)O)CCN(CC(=O)O)CC2)C(=O)N[C@@H](Cc2ccc(O)cc2)C(=O)N[C@@H](CO)C(=O)N(C)[C@@H](CCc2ccccc2)C(=O)N1C` [Example C5] ({DOTA-PEG10}-[Aad]YS[NMehPhe][NMeK](Ac)[Trp(5-OH)]W[Gly(cPr)][NMeDap][NMePhe(4-F)]-NH2; lactam 1-9), on human HER2 (23-652) [1], the Kd stood at 0.7 nM. Besides, the results for the IC50 on human HER2 (23-652) [2] (setting [3]) and at mouse HER2 (23-653) (setting [4]) were 0.5 nM and 0.7 nM, respectively.

Consider `CC(=O)NCCCC[C@H]1C(=O)N[C@@H](Cc2c[nH]c3ccc(O)cc23)C(=O)N[C@@H](Cc2c[nH]c3ccccc23)C(=O)N[C@@H](C2CC2)C(=O)N(C)[C@H](C(=O)N(C)[C@@H](Cc2ccc(F)cc2)C(=O)N[C@@H](CCCCNC(=O)CN2CCN(CC(=O)O)CCN(CC(=O)O)CCN(CC(=O)O)CC2)C(N)=O)CNC(=O)CCC[C@H](N)C(=O)N[C@@H](Cc2ccc(O)cc2)C(=O)N[C@@H](CO)C(=O)N(C)[C@@H](CCc2ccccc2)C(=O)N1C` [Example C18], for which the Kd on human HER2 (23-652) [1] came to 0.1 nM. Moreover, the half-inhibitory concentration (IC50) at human HER2 (23-652) [2] (setting [3]) was 0.1 nM; on mouse HER2 (23-653) (setting [4]), 0.6 nM.

As to `COCCOCCOCCOCCOCCOCCOCCOCCOCCOCCOCCOCCC(=O)N[C@H]1CCCC(=O)NC[C@@H](C(=O)N(C)[C@@H](Cc2ccc(F)cc2)C(=O)N[C@@H](CCCCN)C(N)=O)N(C)C(=O)[C@H](C2CC2)NC(=O)[C@H](Cc2c[nH]c3ccccc23)NC(=O)[C@H](Cc2c[nH]c3ccc(O)cc23)NC(=O)[C@H](CCCCNC(C)=O)N(C)C(=O)[C@H](CCc2ccccc2)N(C)C(=O)[C@H](CO)NC(=O)[C@H](Cc2ccc(O)cc2)NC1=O` [Example A43, TFA salt], the Kd on human HER2 (23-652) [1] turned out to be 0.2 nM. Besides, the results for the half-inhibitory concentration (IC50) at human HER2 (23-652) [2] (read-out: huHER2 TR-FRET IC50) and at mouse HER2 (23-653) (setting [4]) were under 0.1 nM and 0.2 nM, respectively.

With `CC(=O)NCCCC[C@H]1C(=O)N[C@@H](Cc2c[nH]c3ccc(O)cc23)C(=O)N[C@@H](Cc2c[nH]c3ccccc23)C(=O)N[C@@H](C2CC2)C(=O)N(C)[C@H](C(=O)N(C)[C@@H](Cc2ccc(F)cc2)C(=O)N[C@@H](CCCCNC(=O)CN2CCN(CC(=O)O)CCN(CC(=O)O)CCN(CC(=O)O)CC2)C(N)=O)CNC(=O)CCC[C@H](NC(=O)CC(=O)O)C(=O)N[C@@H](Cc2ccc(O)cc2)C(=O)N[C@@H](CO)C(=O)N(C)[C@@H](CCc2ccccc2)C(=O)N1C` [Example C10], the Kd at human HER2 (23-652) [1] was under 0.1 nM. Further, the 50% inhibitory concentration (IC50) on human HER2 (23-652) [2] (setting [3]) and at mouse HER2 (23-653) (setting [4]) was under 0.1 nM in each case.

With `CC(=O)NCCCC[C@H]1C(=O)N[C@@H](Cc2c[nH]c3ccc(O)cc23)C(=O)N[C@@H](Cc2c[nH]c3ccccc23)C(=O)N[C@@H](C2CC2)C(=O)N(C)[C@H](C(=O)N(C)[C@@H](Cc2ccc(F)cc2)C(=O)N[C@@H](CCCCNC(=O)CCC(C(=O)O)N2CCN(CC(=O)O)CCN(CC(=O)O)CC2)C(N)=O)CNC(=O)CCC[C@H](NC(C)=O)C(=O)N[C@@H](Cc2ccc(O)cc2)C(=O)N[C@@H](CO)C(=O)N(C)[C@@H](CCc2ccccc2)C(=O)N1C` (single isomer, unassigned) [Example C34], the equilibrium dissociation constant (Kd) at human HER2 (23-652) [1] was under 0.1 nM. Moreover, the concentration for half-maximal inhibition (IC50) on human HER2 (23-652) [2] (setting [3]) and at mouse HER2 (23-653) (setting [4]) was under 0.1 nM each time.
